Data as given in patent US9828349B2, “1-aryl-1-hydroxy-2,3-diamino-propyl amines, 1-heteroaryl-1-hydroxy-2,3-diamino-propyl amines and related compounds having analgesic and/or immuno stimulant activity” (Allergan, Inc., priority 2005, dated 2017).

Columns and labels:
GlcCer synthase = molecular target: T1, GlcCer synthase (Homo sapiens, UniProt Q16739); conditions: cited from earlier work
T1 sequence (Q16739 1-394): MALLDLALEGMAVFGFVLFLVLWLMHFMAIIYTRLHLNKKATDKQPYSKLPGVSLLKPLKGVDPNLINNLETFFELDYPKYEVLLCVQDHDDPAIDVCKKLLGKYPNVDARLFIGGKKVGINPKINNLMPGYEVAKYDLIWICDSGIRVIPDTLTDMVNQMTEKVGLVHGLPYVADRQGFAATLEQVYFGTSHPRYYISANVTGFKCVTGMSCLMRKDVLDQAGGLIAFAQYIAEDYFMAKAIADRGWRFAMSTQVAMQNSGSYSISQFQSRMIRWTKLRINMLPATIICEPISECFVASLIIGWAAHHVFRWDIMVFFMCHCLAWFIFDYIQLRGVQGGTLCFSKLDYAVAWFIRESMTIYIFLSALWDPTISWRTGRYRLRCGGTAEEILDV

[1] = system: tactile allodynia (Chung model); assay: Chung model: reversal of tactile allodynia after spinal nerve ligation (von Frey hairs); format: in vivo; conditions: highest % allodynia reversal out of 15, 30, 60 min post-drug, rat
Text: An art-accepted model or assay for measuring an analgesic effect of a compound in chronic pain (in particular peripheral neuropathy) is the model known as Kim and Chung 1992, Pain […], pp 355-363 (Chung model). This model involves the surgical ligation of the L5 (and optionally the L6) spinal nerves on one side in experimental animals. Rats recovering from the surgery gain weight and display a level of general activity similar to that of normal rats. However, these rats develop abnormalities of the foot, wherein the hindpaw is moderately everted and the toes are held together. More importantly, the hindpaw on the side affected by the surgery appears to become sensitive to low-threshold mechanical stimuli and will perceive pain instead of the faint sensation of touch. This sensitivity to normally non-painful touch, called “tactile allodynia”, develops within the first week after surgery and lasts for at least two months. The allodynia response includes lifting the affected hindpaw to escape from the stimulus, licking the paw and holding it in the air for many seconds. None of these responses is normally seen in the control group.
To produce the tactile allodynia, rats are anesthetized before surgery. The surgical site is shaved and prepared either with betadine or Novacaine. Incision is made from the thoracic vertebra XIII down toward the sacrum. Muscle tissue is separated from the spinal vertebra (left side) at the L4-S2 levels. […]
Tactile allodynia is assessed via von Frey hairs, which are a series of fine hairs with incremental differences in stiffness. […] The applied force has been calculated to range from 0.41 to 15.1 grams. […] The 50% paw withdrawal threshold is determined using the method of Dixon, W. J., Ann. […] Tactile allodynia is measured prior to and 15, 30, and 60 minutes after drug administration. The post-drug threshold is compared to the pre-drug threshold and the percent reversal of tactile sensitivity is calculated based on a normal threshold of 15.1 grams. […]

[2] = system: spatial memory deficit after transient forebrain ischemia; conditions: treatment after transient forebrain ischemia in rats; cited from earlier work

O=C(N[C@H](CN1CCCC1)[C@H](O)c1ccccc1)OCc1ccccc1 [PBPP, D-threo-1-phenyl-2-benzyloxycarbonylamino-3-pyrrolidino-1-propanol]
inhibition of GCS (glucosylceramide synthase) (GlcCer synthase): potent GCS inhibitor

CCCCCCCCCCCCCCCC(=O)N[C@H](CN1CCCC1)[C@H](O)c1ccc(O)cc1 [D-threo-4′-hydroxy-P4]
inhibition of GCS (glucosylceramide synthase) (GlcCer synthase): one of the most potent inhibitor of GCS

CC(=O)O[C@@H](c1ccccc1)[C@H](CN1CCOCC1)NC(=O)OCc1ccccc1.Cl [Compound 3, benzyl L-threo-1-acetoxy-3-morpholino-1-phenylpropan-2-ylcarbamate hydrochloride]
Peak % Pain reversal ([1]; 300 μg/kg IP): 92%

N[C@@H](CN1CCCC1)[C@@H](O)c1ccncc1 (racemic) [Compound 46, DL-threo-2-amino-1-(pyridin-4-yl)-3-(pyrrolidin-1-yl)propan-1-ol]
Peak % Pain reversal ([1]; 30 μg/kg IP): 96%

CCCCCCCCCC(=O)N[C@@H](CN1CCOCC1)[C@@H](O)c1ccccc1 [L-threo-PDMP, (1S,2S)-1-phenyl-2-decanoylamino-3-morpholino-1-propanol]
deficit of a well learned spatial memory (8-arm maze task) [2]: ameliorated the deficit of a well learned spatial memory

Cl.O=C(N[C@@H](CN1CCOCC1)[C@@H](O)c1ccccc1)OCc1ccccc1 [Compound 1, benzyl L-threo-1-hydroxy-3-morpholino-1-phenylpropan-2-ylcarbamate hydrochloride]
Peak % Pain reversal ([1]; 300 μg/kg IP): 44%
